Read-outs that look alike come from different tables or passages of the source.

Results on four compounds are retold here after PMC2041813, “Perturbation of the Dimer Interface of Triosephosphate Isomerase and its Effect on Trypanosoma cruzi” (PLoS Neglected Tropical Diseases, 2007).

For one data set, the target named is T1, TIM of T. cruzi (TcTIM) (Trypanosoma cruzi, UniProt P52270).
T1 construct: made in house; host or cells: Escherichia coli
Description: Inhibition of activity of recombinant wild type TcTIM after 2 h incubation. In kind it is biochemical. Here is the method: (§1) TcTIM [19] and TIMs from T. brucei, L. mexicana, and Homo sapiens were expressed in Escherichia coli and purified as described in the indicated references. After purification, the enzymes dissolved in 100 mM triethanolamine, 10 mM EDTA and 1 mM dithiothreitol (pH 8) were precipitated with ammonium sulfate (75% saturation) and stored at 4°C. Before use, the enzymes were extensively dialyzed against 100 mM triethanolamine/10 mM EDTA (pH 7.4). Protein was determined from their absorbance at 280 nm. The ε M^−1 cm^−1 was 36440 for TcTIM, and 33460 for TbTIM and LmTIM.
(§2) In all the experiments, a solution of DTDA in dimethylsulfoxide (DMSO) was used. The final DMSO concentration in all experiments was 10% (v/v).
(§3) The indicated TIMs were incubated at pH 7.4 at a concentration of 5 µg per ml of 100 mM triethanolamine, 10 mM EDTA, 10% dimethyl sulfoxide (v/v), and DTDA at the concentrations indicated in the Results section for 2 hours at 36°C. At this time, an aliquot was withdrawn for assay of activity.
(§4) Activity was determined in the direction of glyceraldehyde 3-phosphate to dihydroxyacetone phosphate. The decrease in absorbance at 340 nm was followed in a Hewlett Packard spectrophotometer at 25°C. The reaction mixture (1 ml) contained 100 mM triethanolamine, 10 mM EDTA, 0.2 mM NADH, 1 mM glyceraldehyde 3-phosphate, and 0.9 units α-glycerolphosphate dehydrogenase (pH 7.4). The reaction was started by the addition of TIM, usually 5 ng. The average specific activity of the various preparations of TcTIM used in this work was 2900±200 µmol/min/mg.

The next data set concerns rats. Also on record: method as in PMID 4078223. The note with it: cited from earlier work.
Data set [1] concerns the target T2, TIM from H. sapiens (HTIM) (Homo sapiens, UniProt P60174).
T2 construct: made in house; host or cells: Escherichia coli
Description: Inhibition of activity of human TIM after 2 h incubation. The data set is classed as biochemical. Here is the method: as §1, §2, §3, §4

A further data set addresses T3, TbTIM (Trypanosoma brucei brucei, UniProt P04789).
T3 construct: made in house; host or cells: Escherichia coli
Description: Inhibition of activity of TbTIM after 2 h incubation. In kind it is biochemical. Here is the method:
as §1, §2, §3
Activity was determined in the direction of glyceraldehyde 3-phosphate to dihydroxyacetone phosphate. The decrease in absorbance at 340 nm was followed in a Hewlett Packard spectrophotometer at 25°C. The reaction mixture (1 ml) contained 100 mM triethanolamine, 10 mM EDTA, 0.2 mM NADH, 1 mM glyceraldehyde 3-phosphate, and 0.9 units α-glycerolphosphate dehydrogenase (pH 7.4). […]

A further data set has as its target T4, LmTIM (Leishmania mexicana, UniProt P48499).
T4 construct: made in house; host or cells: Escherichia coli
Description: Inhibition of activity of LmTIM after 2 h incubation. The data set is classed as biochemical. The procedure: as §1, §2, §3, §4

In a further data set the target is T5, TcTIM C118V (Trypanosoma cruzi, UniProt P52270, C118V).
T5 construct: made in house
T5 sequence (P52270 whole entry C118V): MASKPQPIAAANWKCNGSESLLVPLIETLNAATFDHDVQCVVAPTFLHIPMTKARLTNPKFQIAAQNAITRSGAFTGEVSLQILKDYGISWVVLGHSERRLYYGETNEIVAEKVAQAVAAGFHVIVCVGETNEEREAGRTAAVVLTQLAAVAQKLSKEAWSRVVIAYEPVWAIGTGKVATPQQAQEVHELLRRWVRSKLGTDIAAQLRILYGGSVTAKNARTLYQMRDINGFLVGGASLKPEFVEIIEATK
Description: Inhibition of activity of TcTIM C118V mutant. In kind it is biochemical. Conditions: 2 h, 36°C, 10% DMSO, read-out: IC50, concentration of DTDA that induces 50% inhibition. The procedure: as §2, §3, §4

The target of another data set is TbTIM V118C (Trypanosoma brucei brucei, UniProt P04789, V117C). Description: Inhibition of activity of TbTIM V118C mutant. The data set is classed as biochemical. The procedure: as §2, §3, §4
Chain of TbTIM V118C (P04789 whole entry V117C): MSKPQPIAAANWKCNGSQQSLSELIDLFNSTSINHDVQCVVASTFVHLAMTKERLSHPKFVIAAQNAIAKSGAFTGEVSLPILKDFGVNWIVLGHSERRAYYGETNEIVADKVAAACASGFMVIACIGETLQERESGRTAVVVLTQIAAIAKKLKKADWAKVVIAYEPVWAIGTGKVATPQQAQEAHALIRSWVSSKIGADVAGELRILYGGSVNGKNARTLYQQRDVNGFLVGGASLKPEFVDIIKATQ
Another data set addresses T6, TcTIM C15A (Trypanosoma cruzi, UniProt P52270, C15A).
T6 construct: made in house
Description: Inhibition of activity of TcTIM C15A mutant. In kind it is biochemical. Conditions: 2 h, 36°C, 10% DMSO, read-out: IC50, concentration of DTDA that induces 50% inhibition. The procedure:
as §2, §3, §4

The target in another data set is T7, TcTIM C40A (Trypanosoma cruzi, UniProt P52270, C40A).
T7 construct: made in house
T7 sequence (P52270 whole entry C40A): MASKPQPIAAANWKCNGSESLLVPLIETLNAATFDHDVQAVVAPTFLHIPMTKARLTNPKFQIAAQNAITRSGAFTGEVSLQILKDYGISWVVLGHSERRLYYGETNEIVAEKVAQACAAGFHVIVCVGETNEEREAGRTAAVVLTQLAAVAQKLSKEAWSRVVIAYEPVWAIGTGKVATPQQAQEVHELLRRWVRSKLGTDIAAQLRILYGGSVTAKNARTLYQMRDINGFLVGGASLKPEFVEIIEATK
Description: Inhibition of activity of TcTIM C40A mutant. In kind it is biochemical. The note with it: half-maximal inhibition of the initial phase (biphasic response), read-out: IC50, concentration of DTDA that induces 50% inhibition. Here is the method: as §2, §3, §4

A further data set concerns the target T8, TcTIM C127A (Trypanosoma cruzi, UniProt P52270, C127A).
T8 construct: made in house
Description: Inhibition of activity of TcTIM C127A mutant. The data set is classed as biochemical. Conditions: 2 h, 36°C, 10% DMSO, read-out: IC50, concentration of DTDA that induces 50% inhibition. Here is the method: as §2, §3, §4

Another data set deals with E. coli JM103 cells. Description: Growth of intact E. coli (own TIM) in minimal media. In kind it is cell-based, Escherichia coli. The note with it: 30 µM, M9 medium, 10% DMSO, absorbance at 600 nm. The procedure: (§5) E. coli JM103 cells were used as control. E. coli devoid of their endogenous TIM termed VR101 [10] were kindly provided by Dr. Gloria Saab-Rincón; these cells have a kanamicin resistant cassette. […] The strains were grown at 37°C in solid Luria-Bertani medium that had been supplemented with 50 µg of kanamycin and 50 µg of ampicilin per ml. One colony was transferred to M9 medium that had 10% DMSO and 50 µg of each of the latter antibiotics per ml. Growth of the various cells was followed throughout time by measuring the absorbance of the culture at 600 nm.

Data set [2] deals with E. coli cells that had TcTIM instead of their own TIM. Description: Growth of E. coli devoid of endogenous TIM transformed with TcTIM. In kind it is cell-based, Escherichia coli. Here is the method:
as §5

The test system of another data set is T. cruzi epimastigotes. Description: Culture of T. cruzi epimastigotes, cell number up to 72 hours. In kind it is cell-based, Trypanosoma cruzi. The procedure: Where indicated in the Results section, the media was supplemented with the indicated concentrations of DTDA. The number of cells was recorded at various times for as long as 72 hours.
The next data set has as its system hemoglobin. On the set-up: method as in PMID 4078222. Conditions: cited from earlier work.
For a further data set, the system named is rodents. On the set-up: method as in PMID 7265299. The note with it: cited from earlier work.
The mark [3] stands for this setting: concentrations as high as 200 µM.

T2 sequence (P60174 whole entry): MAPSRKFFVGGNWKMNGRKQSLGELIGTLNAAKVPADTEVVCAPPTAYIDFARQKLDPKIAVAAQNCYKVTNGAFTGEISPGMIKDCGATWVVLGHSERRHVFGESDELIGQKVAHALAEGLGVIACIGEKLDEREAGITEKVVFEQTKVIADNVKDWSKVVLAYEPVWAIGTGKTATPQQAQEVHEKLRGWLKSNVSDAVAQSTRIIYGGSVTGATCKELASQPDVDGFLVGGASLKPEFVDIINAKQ
T1 sequence (P52270 whole entry): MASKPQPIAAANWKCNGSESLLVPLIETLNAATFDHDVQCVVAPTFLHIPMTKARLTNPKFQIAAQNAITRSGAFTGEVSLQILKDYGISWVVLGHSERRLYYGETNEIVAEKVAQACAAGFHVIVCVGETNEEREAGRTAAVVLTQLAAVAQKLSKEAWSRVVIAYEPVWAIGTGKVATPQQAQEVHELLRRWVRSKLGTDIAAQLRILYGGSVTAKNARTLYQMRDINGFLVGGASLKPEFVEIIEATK
T4 sequence (P48499 whole entry): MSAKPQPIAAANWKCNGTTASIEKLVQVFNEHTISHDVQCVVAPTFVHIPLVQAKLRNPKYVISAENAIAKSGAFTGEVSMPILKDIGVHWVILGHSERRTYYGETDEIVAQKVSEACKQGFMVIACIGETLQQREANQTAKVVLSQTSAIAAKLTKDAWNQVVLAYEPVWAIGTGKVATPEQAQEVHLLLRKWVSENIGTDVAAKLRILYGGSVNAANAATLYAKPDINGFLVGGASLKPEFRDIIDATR
T3 sequence (P04789 whole entry): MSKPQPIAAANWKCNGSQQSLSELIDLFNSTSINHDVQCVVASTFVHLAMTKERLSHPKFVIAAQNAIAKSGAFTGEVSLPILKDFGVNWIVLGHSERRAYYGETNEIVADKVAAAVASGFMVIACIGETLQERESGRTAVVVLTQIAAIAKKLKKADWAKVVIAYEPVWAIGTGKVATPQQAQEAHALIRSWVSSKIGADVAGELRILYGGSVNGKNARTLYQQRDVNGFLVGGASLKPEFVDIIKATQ
T6 sequence (P52270 whole entry C15A): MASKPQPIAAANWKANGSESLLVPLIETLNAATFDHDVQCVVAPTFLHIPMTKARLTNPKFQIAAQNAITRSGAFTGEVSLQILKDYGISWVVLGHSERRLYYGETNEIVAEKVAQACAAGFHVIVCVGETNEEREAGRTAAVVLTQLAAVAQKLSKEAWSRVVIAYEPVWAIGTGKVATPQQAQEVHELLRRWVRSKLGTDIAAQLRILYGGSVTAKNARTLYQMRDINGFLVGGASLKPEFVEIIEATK
T8 sequence (P52270 whole entry C127A): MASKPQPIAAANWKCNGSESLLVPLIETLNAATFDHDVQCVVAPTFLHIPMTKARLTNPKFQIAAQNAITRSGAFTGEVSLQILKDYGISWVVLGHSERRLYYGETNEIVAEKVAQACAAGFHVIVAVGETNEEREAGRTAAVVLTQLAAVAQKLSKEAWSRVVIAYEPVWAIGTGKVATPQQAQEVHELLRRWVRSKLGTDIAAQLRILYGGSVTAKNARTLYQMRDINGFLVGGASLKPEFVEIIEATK

For `Nc1ccccc1SCSc1ccccc1N` [2,2′-(methylenebisthioaniline)], the IC50 at TIM of T. cruzi (TcTIM) (read-out: concentration required to inhibit the activity of TcTIM by 50%) is 50000 nM.
In the case of `Nc1ccc(SSc2ccc(N)cc2)cc1` [4,4′-diamino disulfide], the “toxic effect on administration to rats” value in the data set with rats was “hematological alterations”.
For the compound `Nc1ccccc1SSc1ccccc1N` [DTDA, 2,2′-dithiodianiline], the IC50 is 260 nM at TIM of T. cruzi (TcTIM) (2 h, 36°C, 10% DMSO, read-out: concentration that induced 50% inhibition of the activity of TcTIM); 258 ± 35 nM on TIM of T. cruzi (TcTIM) (TcTIM wild, 5 µg/ml enzyme, 2 h, 36°C, 10% DMSO, read-out: IC50, concentration of DTDA that induces 50% inhibition); 98000 nM in [1] (2 h, 36°C, 10% DMSO, read-out: concentration for fifty percent inhibition of HTIM activity); above 200000 nM at LmTIM (LmTIM, 2 h, 36°C, 10% DMSO, read-out: IC50, concentration of DTDA that induces 50% inhibition); 208 ± 37 nM at TcTIM C118V; above 200000 nM on TbTIM V118C. Also, the IC50 on TcTIM C15A amounted to 346 ± 32 nM; on TcTIM C40A, 1530 ± 450 nM; on TcTIM C127A it was 57 ± 8 nM. Besides, the “effect on the activity of HTIM” value in data set [1] (10 µM, 2 h, 36°C) is on record as “did not affect”. Besides, the “selectivity for TcTIM in reference to HTIM” value in data set [1] (ratio of concentrations for 50% inhibition, HTIM vs TcTIM) was around 400 times. Also, the “effect on the activity of TbTIM” value on TbTIM (10 µM, 2 h, 36°C) is on record as “did not affect”. The “sensitivity of TbTIM activity” value on TbTIM (setting [3]) is recorded as “completely insensitive”. In addition, the “effect on the activity of LmTIM” value on LmTIM (10 µM, 2 h, 36°C) was “did not affect”. Further, the “sensitivity of LmTIM activity” value on LmTIM (setting [3]) was “completely insensitive”. The “sensitivity of TbTIM V118C mutant activity” value at TbTIM V118C (200 µM) is “insensitive”. In addition, the “effect on growth of E. coli cells that worked with their own TIM” value in the data set on E. coli JM103 cells is reported as “had no effect”. For the same compound, in data set [2] (30 µM, M9 medium, 10% DMSO, absorbance at 600 nm), the “effect on growth of E. coli cells that relied on the function of TcTIM” value is recorded as “effectively prevented”. In data set [2] (concentrations as low as 4 µM), the “effect on the lag that precedes logarithmic growth of TcTIM transformed E. coli” value is reported as “important increase in the lag”. Besides, in data set [2] (inferred from the effect on TcTIM transformed E. coli), the “permeability of biological membranes to the compound” value is “permeable”. In addition, the “effect on growth of T. cruzi epimastigotes” value in the data set with T. cruzi epimastigotes (4 µM, up to 72 hours) is recorded as “inhibition of growth”; with T. cruzi epimastigotes (4–8 µM), “significant inhibition of the growth”. In addition, in the data set on T. cruzi epimastigotes (10 µM and 15 µM), the “effect on survival of T. cruzi parasites in cell cultures” value was “causes death of parasites”. In addition, the “effect on the number of T. cruzi epimastigotes in culture” value with T. cruzi epimastigotes (concentrations higher than 8 µM, up to 72 hours) was “significant decrease in the number of cells”. In addition, the effect on hemoglobin entry with hemoglobin is listed as “irreversible oxidation of hemoglobin”.
Take diaminodiphenyldisulfide: in the data set with rodents, the “toxic effect on the kidney” value is “atrophy and hyperplasia in the kidney”; the “toxic effect on the liver” value is listed as “necrotic changes in the liver”.
